# According to patent publication US20190350898A1, “METHODS AND COMPOSITIONS FOR TREATMENT OF ALZHEIMER'S DISEASE” (Neurotrope Bioscience, Inc., priority 2018, published 2019):
# Several values for one entry are separate records, joined by “and”; a condition that tells them apart may be missing. Identical values can stand only once.
# Legend:
# [1] = tested on: patients with advanced Alzheimer's disease; experiment: Severe Impairment Battery (SIB) change from baseline, double-blind randomized placebo-controlled trial; format: in vivo, human; conditions: for SIB Total change from baseline, LS Mean / SIB Total, Difference vs. Placebo / SIB Total change from baseline, LS Mean (SE): Bryostatin 20 μg; for SIB Delta at Ave of Week 13 and 15, Mean / SIB Delta at Week 5, Mean / SIB Delta at Week 9, Mean / SIB Delta at Week 13, Mean: Low dose (20), unadjusted; for Combined treatment effect, mean improvement in SIB over placebo: bryostatin 20 μg, post-hoc MMRM; for SIB Total LS Mean difference between 20 μg group and placebo: week 13
# Description: In a double-blind, randomized, placebo-controlled trial, bryostatin was administered by intravenous infusion (˜45 minutes) to patients with advanced Alzheimer's disease for 12 weeks at doses of 20 or 40 μg. Randomization was stratified at baseline by severe (MMSE-2, 4-9) and moderate (MMSE-2, 10-15) dementia, wherein MMSE-2 refers to Mini-Mental State Examination, version 2. The MMSE or Folstein test is a 30-point questionnaire that is used extensively in clinical and research settings to measure cognitive impairment. Low scores indicate greater impairment. Version 2 of the MMSE was published in 2010, expanding the original questionnaire's usefulness in populations with milder forms of cognitive impairment. […] Importantly, this cognitive improvement persisted and increased 30 days after all bryostatin dosing had been completed.
# (§1) Adults aged 55-85 with cognitive deficits present for at least 2 years, MMSE-2 of 4-15, inclusive, and a diagnosis of Alzheimer's dementia were randomly assigned to receive blinded intravenous infusions of bryostatin 24 μg or matching placebo at weeks 0 and 1. The 24 μg and 48 μg doses during the first two weeks of the 20 and 40 μg protocols respectively were considered to be “loading” doses thought to be beneficial from prior experience with Compassionate Use trial patients. Nelson et al., Alzheimers Dis. 2017 58: 521-535. In one arm, the two 24 μg doses were followed by 20 μg doses at weeks 5, 7, 9 and 11 with the Severe Impairment Battery (SIB) measured at baseline and weeks 5, 9, 13, and 15. In a second arm, the two 48 μg doses at weeks 0 and 1 were followed by 40 μg doses at weeks 5, 7, 9, and 11 with the SIB measured at baseline and weeks 5, 9, 13, and 15. The subjects were stratified by MMSE-2 in two strata: Stratum 1 (4-9) and Stratum 2 (10-15). The first primary endpoint was safety and tolerability, assessed by treatment emergent adverse events (TEAEs) with a sample size of 150 subjects randomized 1:1:1. Although efficacy was the secondary measure, the primary efficacy endpoint was SIB improvement at week 13 evaluated using a mixed model for repeated measures. A secondary efficacy endpoint was ADCS-ADL Sev. The primary safety population included all subjects who received at least 1 dose of study drug, and efficacy was evaluated in a modified intent to treat (mITT) population that received at least 1 dose of study drug and had at least one treatment evaluation. Efficacy was evaluated both as a primary end-point in the modified intent-to-treat (mITT) population and also as a primary end point in a Completers population that included all patients that completed the entire protocols as described above.
# The SIB efficacy measurement at 30 days (week 15) post dosing—after all dosing had been completed (last dose administered at week 11)—was a pre-specified exploratory endpoint. Week 15 results were only included for subjects who were not re-randomized. The mixed model assumes missing at random, but order of enrollment in the trial was not random. Since order of enrollment was not random, the assumption of missing at random is not met. For this reason, only including week 15 for those who were not re-randomized is an appropriate way to estimate week 15 results, but not an appropriate way to estimate results at the earlier visits. For this reason, estimates up through week 13 are from a mixed model that only included data through week 13 and the week 15 estimates are from a separate model. Results were generated using a mixed model with repeated measures predicting change from baseline in SIB Total Score as the response variable and using baseline score, baseline MMSE strata, treatment, visit (categorical), and visit (treatment) as predictors. […]
# [2] = tested on: patients with advanced Alzheimer's disease; experiment: ADCS-ADL-SIV (ADCS-ADL Sev) secondary efficacy endpoint, same trial; format: in vivo, human; conditions: for ADCS-ADL LS Mean difference between 20 μg group and placebo: week 13
# Description: as §1
# There was no evidence of treatment by efficacy of acetyl-cholinesterase-inhibitor (AChEI) use interaction. For SIB Total, the two sided p-value for the interaction between treatment and AChEI use was 0.8244 and the two sided p-value for the interaction between treatment, AChEI use and time was 0.9223. Similar results were seen when investigating the effect of AChEI use on treatment effect for ADCS-ADL with p-values of 0.5137 and 0.6256 (two sided), respectively. At week 13, the LS Mean difference between 20 μg group and placebo in SIB Total for AChEI non-users was 2.00 and users was 2.09, and in ADCS-ADL for AChEI non-users was −0.67 and users was 1.99.
# [3] = Week 13, FAS (mITT), Without Memantine
# [4] = Week 15 (30 days post dosing), Completer, MMRM
# [5] = Week 15 (30 days post dosing), FAS, MMRM
# [6] = Week 15, Completer, With Memantine
# [7] = Week 15, Completer, Without Memantine
# [8] = Week 15, FAS (mITT), Without Memantine
# [9] = Memantine Exposed Patients, FAS
# [10] = Memantine Treatment-Naïve Patients, FAS
smiles,measurement,setting,value
"CCC/C=C/C=C/C(=O)O[C@H]1/C(=C/C(=O)OC)C[C@H]2C[C@H]([C@@H](C)O)OC(=O)C[C@H](O)C[C@@H]3C[C@H](OC(C)=O)C(C)(C)[C@](O)(C[C@@H]4C/C(=C/C(=O)OC)C[C@H](/C=C/C(C)(C)[C@]1(O)O2)O4)O3 [Bryostatin, bryostatin-1]","SIB Total change from baseline, LS Mean",[1]; [3],3.83 points
same,"SIB Total, Difference vs. Placebo",[1]; [3],5.11
same,"SIB Total change from baseline, LS Mean (SE)","[1]; Week 13, FAS, MMRM",1.16 (1.150)
same,"SIB Total, Difference vs. Placebo","[1]; Week 13, FAS, MMRM",1.94
same,"SIB Total change from baseline, LS Mean (SE)",[1]; [4],1.96 (1.255)
same,"SIB Total, Difference vs. Placebo",[1]; [4],4.09
same,"SIB Total, Difference vs. Placebo","[1]; Week 15 (30 days post dosing), Completer, MMRM, listed as bryostatin",4.0 and 4.09
same,"SIB Total change from baseline, LS Mean (SE)",[1]; [5],1.77 (1.342) points
same,"SIB Total, Difference vs. Placebo",[1]; [5],3.59
same,"SIB Total change from baseline, LS Mean (SE)","[1]; Week 15 (30 days post dosing), FAS, MMRM, listed as bryostatin",1.77 points
same,"SIB Total change from baseline, LS Mean",[1]; [6],−0.71
same,"SIB Total, Difference vs. Placebo",[1]; [6],1.45
same,"SIB Total change from baseline, LS Mean",[1]; [7],6.24
same,"SIB Total, Difference vs. Placebo",[1]; [7],6.36
same,"SIB Total change from baseline, LS Mean",[1]; [8],5.88 points
same,"SIB Total, Difference vs. Placebo",[1]; [8],5.93
same,"SIB Total change from baseline, LS Mean","[1]; Week 15, FAS, With Memantine",−0.83
same,"SIB Total, Difference vs. Placebo","[1]; Week 15, FAS, With Memantine",0.79
same,13-week LS Mean change in SIB (so in the source),"[1]; Completers, 20 μg group 'without memantine' as printed",0.56
same,"SIB Delta at Ave of Week 13 and 15, Mean",[1]; [9],−0.727
same,"SIB Delta at Week 5, Mean",[1]; [9],0.077
same,"SIB Delta at Week 9, Mean",[1]; [9],−0.087
same,"SIB Delta at Week 13, Mean",[1]; [9],−0.545
same,"SIB Delta at Ave of Week 13 and 15, Mean",[1]; [10],5.406
same,"SIB Delta at Week 5, Mean",[1]; [10],3.444
same,"SIB Delta at Week 9, Mean",[1]; [10],3.467
same,"SIB Delta at Week 13, Mean",[1]; [10],4.500
same,"Treatment, adjusted slope (ANCOVA, SIB at 13/15 weeks from baseline, 20 μg Bryostatin vs placebo)","[1]; Memantine Exposed, adjusted for Base SIB, MMSE-2",−0.620 (p = 0.815)
same,"Treatment, adjusted slope (ANCOVA, SIB at 13/15 weeks from baseline, 20 μg Bryostatin vs placebo)","[1]; Memantine Exposed, adjusted for Baseline SIB",−0.531 (p = 0.843)
same,"Treatment, adjusted slope (ANCOVA, SIB at 13/15 weeks from baseline, 20 μg Bryostatin vs placebo)","[1]; Memantine Naïve, adjusted for Base SIB, MMSE-2",5.923 (p = 0.002)
same,"Treatment, adjusted slope (ANCOVA, SIB at 13/15 weeks from baseline, 20 μg Bryostatin vs placebo)","[1]; Memantine Naïve, adjusted for Baseline SIB",5.426 (p = 0.010)
same,"Combined treatment effect, mean improvement in SIB over placebo","[1]; Weeks 5, 9, 13, and 15, 30-Day Follow-up population",4.721
same,"Combined treatment effect, mean improvement in SIB over placebo","[1]; Weeks 5, 9, and 13, Completer population",3.089
same,"Combined treatment effect, mean improvement in SIB over placebo","[1]; Weeks 5, 9, and 13, FAS population",2.146
same,SIB Total LS Mean difference between 20 μg group and placebo,[1]; AChEI non-users,2.00
same,SIB Total LS Mean difference between 20 μg group and placebo,[1]; AChEI users,2.09
same,ADCS-ADL efficacy,[2]; 20 μg dose,significant
same,ADCS-ADL difference from placebo,"[2]; 20 μg dose, completers group",1.6
same,ADCS-ADL difference from placebo,"[2]; 20 μg dose, mITT group",1.4
same,"ADCS-ADL, subgroups with and without memantine",[2]; memantine (Namenda) as background SOC therapy or not,not significantly different above placebo
same,ADCS-ADL LS Mean difference between 20 μg group and placebo,[2]; AChEI non-users,−0.67
same,ADCS-ADL LS Mean difference between 20 μg group and placebo,[2]; AChEI users,1.99
